Test results published in patent US10239849B2 (Merck Sharp & Dohme Corp., priority 2015, dated 2019).
pEC50: −log10 of the molar value.

What was measured:
[1] = target: T1, glutathione-S-transferase (GST) tagged LXRalpha LBD (ligand binding domain) (Homo sapiens, UniProt Q13133); assay: LanthaScreen TR-FRET Liver X Receptor Coactivator Assay, LXR alpha-LBD; type: biochemical; conditions: for Emax: efficacy in relation to reference dual agonist T1317, read-out: LXR alpha activity at max dose (%) (Emax); for pEC50 / LXR alpha IP (nM): potency (Inflection Point) of co-activator recruitment, TR-FRET; for pEC50: read-out: LXR alpha IP
T1 construct: purchased Invitrogen pv4655
T1 sequence (Q13133 209-447 limits assumed): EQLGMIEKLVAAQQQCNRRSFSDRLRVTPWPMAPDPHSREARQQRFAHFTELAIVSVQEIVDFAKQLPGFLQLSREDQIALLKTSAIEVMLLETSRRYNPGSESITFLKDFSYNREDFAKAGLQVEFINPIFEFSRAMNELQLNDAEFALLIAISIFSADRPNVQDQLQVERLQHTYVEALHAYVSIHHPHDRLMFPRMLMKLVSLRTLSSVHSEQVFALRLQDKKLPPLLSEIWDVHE
Method: (§1) While running the LanthaScreen™ TR-FRET Liver X Receptor Coactivator Assay, LXR alpha-LBD or LXR beta-LBD was added to ligand test compounds followed by addition of a mixture of a fluorescein-labelled coactivator peptide and terbium-conjugated anti-GST antibody. After an incubation period at room temperature, TR-FRET (time-resolved fluorescence resonance energy transfer) was measured using a filter-based instrument capable of TR-FRET, e.g. PerkinElmer Envision.

[2] = target: T2, glutathione-S-transferase (GST) tagged LXRbeta LBD (ligand binding domain) (Homo sapiens, UniProt P55055); assay: LanthaScreen TR-FRET Liver X Receptor Coactivator Assay, LXR beta-LBD; type: biochemical; conditions: for Emax: efficacy in relation to reference dual agonist T1317, read-out: LXR beta activity at max dose (%) (Emax); for pEC50: potency (Inflection Point) of co-activator recruitment, TR-FRET, read-out: LXR beta IP
T2 construct: purchased Invitrogen pv4658.pps
T2 sequence (P55055 222-460 limits assumed): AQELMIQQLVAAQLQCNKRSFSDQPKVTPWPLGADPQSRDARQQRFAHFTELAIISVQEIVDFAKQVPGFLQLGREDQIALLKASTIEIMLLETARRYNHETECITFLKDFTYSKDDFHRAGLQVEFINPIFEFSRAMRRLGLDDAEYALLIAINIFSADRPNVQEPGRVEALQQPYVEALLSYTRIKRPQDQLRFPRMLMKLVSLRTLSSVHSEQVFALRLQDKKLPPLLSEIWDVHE
Method: as §1

| Emax [1] [%] | pEC50 [1] | Emax [2] [%] | pEC50 [2] | LXR alpha IP (nM) [1] | Compound |
| --- | --- | --- | --- | --- | --- |
| 46 | 4.71 | 74 | 6.55 |  | CN(CCn1cccn1)C(=O)c1ccc(-c2cnc(N3CCN(C(=O)OC(C)(C)C)CC3)c(C#N)c2)cc1Cl [Example 5-23, tert-butyl 4-[5-(3-chloro-4-{methyl[2-(1H-pyrazol-1-yl)ethyl]carbamoyl}phenyl)-3-cyanopyridin-2-yl]piperazine-1-carboxylate] |
| 42 | 5.16 | 70 | 6.58 |  | CN(CCCO)C(=O)c1ccc(-c2cnc(N3CCN(C(=O)OC(C)(C)C)CC3)c(C#N)c2)cc1Cl [Example 5-15, tert-butyl 4-(5-{3-chloro-4-[(3-hydroxypropyl) (methyl)carbamoyl]phenyl}-3-cyanopyridin-2-yl)piperazine-1-carboxylate] |
| 89 | 4.93 | 59 | 6.52 |  | CC(C)(C)OC(=O)N1CCN(c2ncc(-c3ccc(C(=O)N4CCCCC4)c(Cl)c3)cc2C#N)CC1 [Example 5-11, tert-butyl 4-{5-[3-chloro-4-(piperidin-1-ylcarbonyl)phenyl]-3-cyanopyridin-2-yl}piperazine-1-carboxylate] |
| 68 | 5.84 | 91 | 7.37 |  | CC(C)(C)OC(=O)N1CCN(c2ncc(-c3ccc(C(=O)NCc4ncc[nH]4)c(Cl)c3)cc2C#N)CC1 [Example 5-16, tert-butyl 4-(5-{3-chloro-4-[(1H-imidazol-2-ylmethyl)carbamoyl]phenyl}-3-cyanopyridin-2-yl)piperazine-1-carboxylate] |
| 78 | 6.27 | 120 | 7.74 |  | CN(C)C(=O)c1ccc(-c2cnc(N3CCN(C(=O)OC(C)(C)C)CC3Cc3ccccc3)c(C#N)c2)cc1Cl (centres unmarked) [Example 8-13, tert-butyl 3-benzyl-4-{5-[3-chloro-4-(dimethylcarbamoyl)phenyl]-3-cyanopyridin-2-yl}piperazine-1-carboxylate] |
| 40 | 6.02 | 70 | 8.22 |  | CN(C)C(=O)c1ccc(-c2cnc(N3CCN(C(=O)OC(C)(C)C)C(c4ccccc4)C3)c(C#N)c2)cc1Cl (centres unmarked) [Example 8-12, tert-butyl 4-{5-[3-chloro-4-(dimethylcarbamoyl)phenyl]-3-cyanopyridin-2-yl}-2-phenylpiperazine-1-carboxylate] |

Second part, the compound before the results:

| Compound | Emax [1] [%] | pEC50 [1] | Emax [2] [%] | pEC50 [2] | LXR alpha IP (nM) [1] |
| --- | --- | --- | --- | --- | --- |
| CN(C)C(=O)c1ccc(-c2cnc(N3CCN(C(=O)C(O)(c4ccccc4)C(F)(F)F)CC3)c(C#N)c2)cc1Cl (centres unmarked) [Example 2-32, 2-chloro-4-{5-cyano-6-[4-(3,3,3-trifluoro-2-hydroxy-2-phenylpropanoyl)piperazin-1-yl]pyridin-3-yl}-N,N-dimethylbenzamide] | 37 | 5.52 | 98 | 8.40 |  |
| CC(C)COC(=O)N1CCN(c2ncc(-c3ccc(C(=O)N(C)C)c(Cl)c3)cc2C#N)CC1 [Example 3-2, 2-methylpropyl 4-{5-[3-chloro-4-(dimethylcarbamoyl)phenyl]-3-cyanopyridin-2-yl}piperazine-1-carboxylate] | 19 |  | 41 | 5.81 | No IP |
| CN(C)C(=O)c1ccc(-c2cnc(N3CCN(S(=O)(=O)c4cccnc4)CC3)c(C#N)c2)cc1Cl [Example 1-5, 2-chloro-4-{5-cyano-6-[4-(pyridin-3-ylsulfonyl)piperazin-1-yl]pyridin-3-yl}-N,N-dimethylbenzamide] | 31 | 4.22 | 85 | 6.03 |  |
| CN(C)C(=O)c1ccc(-c2cnc(N3CCN(S(=O)(=O)c4ccccc4C#N)CC3)c(C#N)c2)cc1Cl [Example 1-9, 2-chloro-4-(5-cyano-6-{4-[(2-cyanophenyl)sulfonyl]piperazin-1-yl}pyridin-3-yl)-N,N-dimethylbenzamide] | 46 | 6.21 | 123 | 7.66 |  |
| CN(C)C(=O)c1ccc(-c2cnc(N3CCN(S(=O)(=O)c4ccccc4OC(F)(F)F)CC3)c(C#N)c2)cc1Cl [Example 1-14, 2-chloro-4-[5-cyano-6-(4-{[2-(trifluoromethoxy)phenyl]sulfonyl}piperazin-1-yl)pyridin-3-yl]-N,N-dimethylbenzamide] | 37 | 5.98 | 99 | 7.70 |  |
| CN(C)C(=O)c1ccc(-c2ccc(N3CCN(S(=O)(=O)c4c(Cl)cccc4C(F)(F)F)CC3)cc2)cc1Cl [Example 4-14, 3-chloro-4′-(4-{[2-chloro-6-(trifluoromethyl)phenyl]sulfonyl}piperazin-1-yl)-N,N-dimethylbiphenyl-4-carboxamide] | 25 | 5.01 | 88 | 6.26 |  |
| CN(C)C(=O)c1c(Cl)cc(-c2cnc(N3CC4CCC(C3)N4C(=O)OC(C)(C)C)c(C#N)c2)cc1Cl [Example 7-3, tert-butyl 3-(3-cyano-5-(3,5-dichloro-4-(dimethylcarbamoyl)phenyl)pyridin-2-yl)-3,8-diazabicyclo[3.2.1]octane-8-carboxylate] | 21 | 6.82 | 67 | 7.89 |  |
| CN(C)C(=O)c1ccc(-c2cnc(N3CCN(S(=O)(=O)C4CCCCC4)CC3)c(C#N)c2)cc1Cl [Example 1-7, 2-chloro-4-{5-cyano-6-[4-(cyclohexylsulfonyl)piperazin-1-yl]pyridin-3-yl}-N,N-dimethylbenzamide] | 39 | 4.85 | 79 | 6.47 |  |
| CN(C)C(=O)c1ccc(-c2ccc(N3CCN(C(=O)c4c(F)cccc4Cl)CC3)cc2)cc1Cl [Example 4-19, 3-chloro-4′-{4-[(2-chloro-6-fluorophenyl)carbonyl]piperazin-1-yl}-N,N-dimethylbiphenyl-4-carboxamide] | 20 | 4.77 | 93 | 5.90 |  |
| CN(C)C(=O)c1ccc(-c2cnc(N3CCN(C(=O)[C@@](O)(c4ccccc4)C(F)(F)F)CC3)c(C#N)c2)cc1Cl [Example 2-31, 2-chloro-4-(5-cyano-6-{4-[(2S)-3,3,3-trifluoro-2-hydroxy-2-phenylpropanoyl]piperazin-1-yl}pyridin-3-yl)-N,N-dimethylbenzamide] | 12 | 5.14 | 68 | 6.51 |  |
| CN(C)C(=O)c1ccc(-c2cnc(N3CCN(C(=O)C(C)(C)c4ccccc4)CC3)c(C#N)c2)cc1Cl [Example 2-18, 2-chloro-4-{5-cyano-6-[4-(2-methyl-2-phenylpropanoyl)piperazin-1-yl]pyridin-3-yl}-N,N-dimethylbenzamide] | 43 | 4.79 | 99 | 7.82 |  |
| Cc1cc(CC(=O)N2CCN(c3ncc(-c4ccc(C(=O)N(C)C)c(Cl)c4)cc3C#N)CC2)on1 [Example 2-8, 2-chloro-4-(5-cyano-6-{4-[(3-methylisoxazol-5-yl)acetyl]piperazin-1-yl}pyridin-3-yl)-N,N-dimethylbenzamide] | 5 |  | 46 | 5.38 | No IP |
| CN(C)C(=O)c1ccc(-c2ccc(N3CCN(C(=O)c4c(F)cccc4F)CC3)c(Cl)c2)cc1Cl [Example 4-1, 3,3′-dichloro-4′-{4-[(2,6-difluorophenyl)carbonyl]piperazin-1-yl}-N,N-dimethylbiphenyl-4-carboxamide] |  |  | 90 | 6.08 |  |
